Test results taken from patent US10597388B2, “Pyridazinone herbicides” (FMC CORPORATION, priority 2014, dated 2020).

Assays:
Assay type in all cases: in vivo
[1] = system: galium (catchweed bedstraw, Galium aparine); assay: Test A greenhouse herbicide test, postemergence
Procedure, shortened: (§1)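 Greenhouse postemergence test: formulated chemicals sprayed on one- to two-leaf plants (2 to 10 cm), grown in loam soil blended with sand. Injury assessed visually about 10 d later against untreated controls, scored 0 (no effect) to 100 (complete control).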

[2] = system: blackgrass (Alopecurus myosuroides); assay: Test A greenhouse herbicide test, postemergence
Procedure, shortened: as §1

[3] = system: wheat (winter wheat, Triticum aestivum); assay: Test C greenhouse herbicide test, pre- and postemergence
Procedure, shortened: (§2)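 Two application timings: at sowing into a soil/sand blend, and on 2–18 cm seedlings in peat-vermiculite potting mix. A non-phytotoxic, surfactant-containing solvent carried the compounds. Plants were compared with controls and rated visually on 0–100 after 13–15 d.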

[4] = system: johnsongrass (Sorghum halepense); assay: as above
Procedure, shortened: as §2

[5] = system: ragweed (common ragweed, Ambrosia elatior); assay: as above
Procedure, shortened: as §2

[6] = system: galium (catchweed bedstraw, Galium aparine); assay: as above
Procedure, shortened: as §2

[7] = system: ryegrass, Italian (Italian ryegrass, Lolium multiflorum); assay: as above
Procedure, shortened: as §2

[8] = system: crabgrass, large (large crabgrass, Digitaria sanguinalis); assay: as above
Procedure, shortened: as §2

[9] = system: oilseed rape (Brassica napus); assay: as above
Procedure, shortened: as §2

[10] = system: foxtail, giant (giant foxtail, Setaria faberii); assay: as above
Procedure, shortened: as §2

[11] = system: lambsquarters (Chenopodium album); assay: as above
Procedure, shortened: as §2

[12] = system: morningglory (Ipomoea coccinea); assay: as above
Procedure, shortened: as §2

[13] = system: barnyardgrass (Echinochloa crus-galli); assay: as above
Procedure, shortened: as §2

[14] = 125 g ai/ha, 0 to 100 scale where 0 is no effect and 100 is complete control
[15] = 500 g ai/ha, visual rating after approx. 10 d, 0 to 100 scale (0 no effect, 100 complete control)
[16] = Postemergence, 31 g ai/ha, scale 0 to 100 (0 no effect, 100 complete control)
[17] = Postemergence, 125 g ai/ha, scale 0 to 100, 0 is no effect, 100 is complete control
[18] = Postemergence, 250 g ai/ha, scale 0 to 100, 0 no effect, 100 complete control, 13 to 15 d
[19] = Preemergence, 31 g ai/ha, scale 0 to 100, 0 is no effect, 100 is complete control
[20] = Preemergence, 62 g ai/ha, scale 0 to 100, 0 is no effect, 100 is complete control
[21] = Preemergence, 125 g ai/ha, scale 0 to 100, 0 is no effect, 100 is complete control
[22] = Preemergence, 250 g ai/ha, scale 0 to 100, 0 no effect, 100 complete control
[23] = postemergence, 62 g ai/ha, scale 0 to 100, 0 no effect, 100 complete control

Cc1nn(C)c(=O)c(-c2c(C)sc3ccc(C(F)(F)F)cc23)c1O [Compound 121]
Plant response rating, Galium [1, 14]: 70 | Plant response rating, Galium [1, 15]: 90 | Plant response rating, Blackgrass [2, 14]: 20 | Plant response rating, Blackgrass [2, 15]: 50 | Plant response rating, Wheat [3, 16]: 5 | Plant response rating, Wheat [3, 17]: 25 | Plant response rating, Wheat [3, 18]: 0 | Plant response rating, Wheat [3, 19]: 0 | Plant response rating, Wheat [3, 20]: 0 | Plant response rating, Wheat [3, 21]: 10 | Wheat plant response rating [3, 22]: 15 | Plant response rating, Johnsongrass [4, 16]: 0 | Plant response rating, Johnsongrass [4, 17]: 5 | Plant response rating, Johnsongrass [4, 18]: 5 | Plant response rating, Johnsongrass [4, 19]: 0 | Plant response rating, Johnsongrass [4, 20]: 0 | Plant response rating, Johnsongrass [4, 21]: 0 | Johnsongrass plant response rating [4, 22]: 10 | Plant response rating, Ragweed [5, 16]: 75 | Plant response rating, Ragweed [5, 17]: 95 | Plant response rating, Ragweed [5, 18]: 98 | Plant response rating, Ragweed [5, 19]: 35 | Plant response rating, Ragweed [5, 20]: 95 | Plant response rating, Ragweed [5, 21]: 98 | Ragweed plant response rating [5, 22]: 98 | Plant response rating, Galium [6, 16]: 90 | Plant response rating, Galium [6, 17]: 95 | Plant response rating, Galium [6, 18]: 95 | Plant response rating, Galium [6, 19]: 90 | Plant response rating, Galium [6, 20]: 90 | Plant response rating, Galium [6, 21]: 98 | Galium plant response rating [6, 22]: 100 | Plant response rating, Ryegrass, Italian [7, 16]: 85 | Plant response rating, Ryegrass, Italian [7, 17]: 90 | Plant response rating, Ryegrass, Italian [7, 18]: 90 | Plant response rating, Ryegrass, Italian [7, 19]: 75 | Plant response rating, Ryegrass, Italian [7, 20]: 90 | Plant response rating, Ryegrass, Italian [7, 21]: 95 | Ryegrass, Italian plant response rating [7, 22]: 100 | Plant response rating, Crabgrass, Large [8, 16]: 10 | Plant response rating, Crabgrass, Large [8, 17]: 20 | Plant response rating, Crabgrass, Large [8, 18]: 40 | Plant response rating, Crabgrass, Large [8, 19]: 0 | Plant response rating, Crabgrass, Large [8, 20]: 10 | Plant response rating, Crabgrass, Large [8, 21]: 10 | Crabgrass, Large plant response rating [8, 22]: 35 | Crabgrass, Large plant response rating [8, 23]: 5 | Plant response rating, Oilseed Rape [9, 16]: 70 | Plant response rating, Oilseed Rape [9, 17]: 85 | Plant response rating, Oilseed Rape [9, 18]: 55 | Plant response rating, Oilseed Rape [9, 19]: 0 | Plant response rating, Oilseed Rape [9, 20]: 85 | Plant response rating, Oilseed Rape [9, 21]: 30 | Oilseed Rape plant response rating [9, 22]: 85 | Plant response rating, Foxtail, Giant [10, 16]: 20 | Plant response rating, Foxtail, Giant [10, 17]: 70 | Plant response rating, Foxtail, Giant [10, 18]: 85 | Plant response rating, Foxtail, Giant [10, 19]: 20 | Plant response rating, Foxtail, Giant [10, 20]: 55 | Plant response rating, Foxtail, Giant [10, 21]: 90 | Foxtail, Giant plant response rating [10, 22]: 95 | Plant response rating, Lambsquarters [11, 16]: 90 | Plant response rating, Lambsquarters [11, 17]: 98 | Plant response rating, Lambsquarters [11, 18]: 100 | Plant response rating, Lambsquarters [11, 19]: 60 | Plant response rating, Lambsquarters [11, 20]: 80 | Plant response rating, Lambsquarters [11, 21]: 98 | Lambsquarters plant response rating [11, 22]: 100 | Plant response rating, Morningglory [12, 16]: 98 | Plant response rating, Morningglory [12, 17]: 100 | Plant response rating, Morningglory [12, 18]: 98 | Plant response rating, Morningglory [12, 19]: 25 | Plant response rating, Morningglory [12, 20]: 55 | Plant response rating, Morningglory [12, 21]: 85 | Morningglory plant response rating [12, 22]: 90 | Plant response rating, Barnyardgrass [13, 16]: 20 | Plant response rating, Barnyardgrass [13, 17]: 25 | Plant response rating, Barnyardgrass [13, 18]: 30 | Plant response rating, Barnyardgrass [13, 19]: 5 | Plant response rating, Barnyardgrass [13, 20]: 10 | Plant response rating, Barnyardgrass [13, 21]: 55 | Barnyardgrass plant response rating [13, 22]: 60 | Barnyardgrass plant response rating [13, 23]: 20
